Values quoted from earlier work in US11351213B2, “Composition for the prevention and/or treatment of respiratory tract disorders” (NEILOS S.R.L., priority 2017, dated 2022).

How the values were obtained:
[1] = tested on: patients affected by COPD; details: HIACE study
[2] = tested on: COPD patients
[3] = not given; remark: listed apart in the source
[4] = COPD patients under treatment for six months

| Compound | exacerbations ([1]; COPD, reduction from 1.71 times a year) [times a year] | forced expiratory flow ([1]; patients affected by COPD) | reduction of days of malaise ([2]; COPD) [days/month] | reduction of exacerbations of the pathology ([2]; COPD) [exacerbations/month] | reduction of hospitalisations for COPD ([2]; COPD) [%] | FEV1 (forced expiratory volume at the first second) [2, 4] | maximum expiratory flow [2, 4] | FEV1 ([2]; after a brief therapy of 4 weeks) | activity on bronchi in vitro | activity on bronchi in vivo [3] |
| --- | --- | --- | --- | --- | --- | --- | --- | --- | --- | --- |
| CC(=O)N[C@@H](CS)C(=O)O [NAC, N-acetyl-L-cysteine] | 0.96 | rose from 25% to 75% | 0.56 | 0.07 | 30 | significant increase | significant increase | from 25% to 30% | – | – |
| O[C@H]1CCN2Cc3ccccc3N=C12 [vasicine] | – | – | – | – | – | – | – | – | bronchodilating activity | bronchodilating activity |
| O=c1c2ccccc2nc2n1CC[C@@H]2O [Vasicinone, vasicinone] | – | – | – | – | – | – | – | – | bronchodilating activity | bronchoconstricting activity |
